Read-outs that look alike come from different tables or passages of the source.

These results are taken from publication PMC7059793, “Novel Chemical Scaffolds to Inhibit the Neutral Amino Acid Transporter B^0AT1 (SLC6A19), a Potential Target to Treat Metabolic Diseases” (Frontiers in Pharmacology, 2020).

For assay [1], the target named is T1, B^0AT1 (Homo sapiens, UniProt Q695T7).
T1 construct: expressed in transfected cells
T1 sequence (Q695T7 1-634): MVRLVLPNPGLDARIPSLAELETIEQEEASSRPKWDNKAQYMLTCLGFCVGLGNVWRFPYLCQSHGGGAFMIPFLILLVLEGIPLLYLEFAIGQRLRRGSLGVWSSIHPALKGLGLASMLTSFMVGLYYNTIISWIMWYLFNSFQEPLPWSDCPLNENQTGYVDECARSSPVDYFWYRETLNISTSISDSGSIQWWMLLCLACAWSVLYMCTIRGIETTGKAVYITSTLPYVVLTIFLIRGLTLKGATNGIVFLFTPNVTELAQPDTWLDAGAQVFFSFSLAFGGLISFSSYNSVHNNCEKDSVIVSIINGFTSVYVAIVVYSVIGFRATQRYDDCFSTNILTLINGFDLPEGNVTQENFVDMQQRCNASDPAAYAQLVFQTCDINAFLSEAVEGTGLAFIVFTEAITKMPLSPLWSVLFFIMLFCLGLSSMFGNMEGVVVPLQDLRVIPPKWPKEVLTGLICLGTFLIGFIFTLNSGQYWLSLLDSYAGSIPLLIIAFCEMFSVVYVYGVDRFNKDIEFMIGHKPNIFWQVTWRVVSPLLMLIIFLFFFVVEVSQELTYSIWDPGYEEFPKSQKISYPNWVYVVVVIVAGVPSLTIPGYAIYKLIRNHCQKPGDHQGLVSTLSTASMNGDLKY
T1 sequence (Q9HBJ8 15-222 partner): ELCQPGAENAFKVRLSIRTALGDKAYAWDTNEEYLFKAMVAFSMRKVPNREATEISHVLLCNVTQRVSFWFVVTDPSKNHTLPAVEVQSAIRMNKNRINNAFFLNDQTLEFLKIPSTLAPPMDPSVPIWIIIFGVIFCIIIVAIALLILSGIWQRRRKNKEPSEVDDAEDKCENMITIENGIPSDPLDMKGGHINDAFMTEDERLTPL
The assay is described as follows: Membrane potential detecting FLIPR assay in CHO-BC cells. It counts as cell-based. To be noted: 30 min pre-incubation, leucine or isoleucine 1.5 mM. As to the method: CHO-B^0AT1-collectrin Cells (CHO-BC) were generated, cultured, and used as described recently ([Cheng et al., 2017]). Expression levels of B^0AT1 in CHO-BC cells decline over time. As a result, passages <10 were used for experiments. The cells were maintained in Ham’s F-12 glutamax media with 10% (v/v) fetal bovine serum (FBS, Heat inactivated, 10082147 Gibco), 1mM glutamine, 300μg/ml hygromycin B and 275 μg/ml geneticin.
Membrane depolarisation induced by amino acid transport was monitored using a FLIPR® kit (Molecular Devices, R8042 BLUE DYE). Before the assay, CHO-BC cells were seeded out at a density of 60,000 cells/well and maintained in a flat transparent bottom 96-well plate (Corning) overnight. After washing three times with Hank’s balanced salt solution (136.6 mM NaCl, 5.4 mM KCl, 0.44 mM KH2PO4, 2.7mM Na2HPO4, 1.26mM CaCl2, 0.5mM MgCl2, 0.4 mM MgSO4, 10mM HEPES, pH 7.5, supplemented with 5 mM glucose, abbreviated HBSS + G), cells in each well were incubated for 30 min at room temperature in 50 µl of HBSS pH 7.5 containing 5 mM glucose and compounds as indicated, together with 50 µl of dye-loading buffer provided with the kit. Subsequently, the fluorescence signal was detected every 10 s before and after the addition of leucine or isoleucine at a final concentration of 1.5 mM. Fluorescence was detected at room temperature using a PerkinElmer multimode Plate Reader, with an excitation wavelength of 530 nm and emission wavelength of 565 nm.
(§1) Data are shown as mean ± S.D., transport activities indicated as Na^+-dependent net uptake, were calculated by subtracting the uptake activity in the absence of Na^+ from the total uptake rate. The fluorescent signals measured in the FLIPR assay were normalized to baseline readings before the addition of substrates. Data are presented as percentage of baseline at each time point. IC50 was calculated using the equation: y=ymax(1−[x]/[x]+IC50) .

Assay [2] deals with T1, B^0AT1. The experiment in a line: Radioactive flux assay (radiolabelled leucine/isoleucine uptake) in CHO-BC cells. The class given is cell-based. To be noted: 150 μM [14C]leucine or [14C]isoleucine, 6 min, 37°C. As to the method: CHO-BC cells with passage numbers from 3 to 10 were used in radio-labelled uptake assays. Before the assay, the cells were seeded out in 35 mm dishes (Corning) and maintained for 48–72 h until reaching 80–90% confluence. To initiate transport, the culture medium was removed and the cells washed three times with HBSS + G. Subsequently, cells were incubated with HBSS + G, radiolabelled substrates (150 μM L-[U-^14C]leucine or 150 μM L-[U-^14C]isoleucine) and inhibitors as indicated in the figures or table in a 37°C water bath for 6 min. To terminate transport, cells were washed three times with ice-cold HBSS pH 7.5. For measuring sodium-independent uptake, NaCl in Hank’s buffer was replaced by NMDG-Cl. Cells were then harvested by homogenizing with 500 µl of 0.1 M HCl. An aliquot of 400 µl was used for scintillation counting and the remainder for protein quantification. To investigate inhibition of ASCT2, uptake of 100 μM [^14C]glutamine was measured in 143B cells in the absence and presence of inhibitor (at 10 μM and 50 μM). To measure inhibition of LAT1, uptake of [^14C]leucine was measured in HBSS + G in which NaCl was replaced by NMDG-Cl in 143B cells in the absence and presence of inhibitor (at 10 μM and 50 μM).
as §1

Assay [3] has as its system B^0AT1. Conditions: rat brush-border B^0AT1 in proteoliposomes; ref Pochini et al., 2014; cited from earlier work.
Assay [4] deals with T2, B^0AT1 (Mus musculus, UniProt Q9D687).
T2 construct: from tissue; host or cells: small intestine of C57/BL6J female mice, inverted 1 cm sections
T2 sequence (Q9D687 whole entry): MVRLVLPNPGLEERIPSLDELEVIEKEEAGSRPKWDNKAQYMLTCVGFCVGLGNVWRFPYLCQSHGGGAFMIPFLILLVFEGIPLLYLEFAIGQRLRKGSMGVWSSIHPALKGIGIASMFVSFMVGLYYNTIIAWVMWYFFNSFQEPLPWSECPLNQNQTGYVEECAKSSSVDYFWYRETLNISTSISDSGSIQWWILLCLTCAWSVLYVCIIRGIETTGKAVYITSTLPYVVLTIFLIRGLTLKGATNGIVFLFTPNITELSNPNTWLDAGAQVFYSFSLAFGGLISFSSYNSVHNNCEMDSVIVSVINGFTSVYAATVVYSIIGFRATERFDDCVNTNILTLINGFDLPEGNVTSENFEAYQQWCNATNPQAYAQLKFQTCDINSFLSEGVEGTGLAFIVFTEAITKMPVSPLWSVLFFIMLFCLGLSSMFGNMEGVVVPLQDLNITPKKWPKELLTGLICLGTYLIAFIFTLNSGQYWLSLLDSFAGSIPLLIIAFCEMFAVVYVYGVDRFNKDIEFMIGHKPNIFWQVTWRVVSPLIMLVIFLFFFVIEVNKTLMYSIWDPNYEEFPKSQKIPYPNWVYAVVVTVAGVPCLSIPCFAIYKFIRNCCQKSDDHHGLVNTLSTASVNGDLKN
T2 sequence (Q8R0I0 18-805 partner): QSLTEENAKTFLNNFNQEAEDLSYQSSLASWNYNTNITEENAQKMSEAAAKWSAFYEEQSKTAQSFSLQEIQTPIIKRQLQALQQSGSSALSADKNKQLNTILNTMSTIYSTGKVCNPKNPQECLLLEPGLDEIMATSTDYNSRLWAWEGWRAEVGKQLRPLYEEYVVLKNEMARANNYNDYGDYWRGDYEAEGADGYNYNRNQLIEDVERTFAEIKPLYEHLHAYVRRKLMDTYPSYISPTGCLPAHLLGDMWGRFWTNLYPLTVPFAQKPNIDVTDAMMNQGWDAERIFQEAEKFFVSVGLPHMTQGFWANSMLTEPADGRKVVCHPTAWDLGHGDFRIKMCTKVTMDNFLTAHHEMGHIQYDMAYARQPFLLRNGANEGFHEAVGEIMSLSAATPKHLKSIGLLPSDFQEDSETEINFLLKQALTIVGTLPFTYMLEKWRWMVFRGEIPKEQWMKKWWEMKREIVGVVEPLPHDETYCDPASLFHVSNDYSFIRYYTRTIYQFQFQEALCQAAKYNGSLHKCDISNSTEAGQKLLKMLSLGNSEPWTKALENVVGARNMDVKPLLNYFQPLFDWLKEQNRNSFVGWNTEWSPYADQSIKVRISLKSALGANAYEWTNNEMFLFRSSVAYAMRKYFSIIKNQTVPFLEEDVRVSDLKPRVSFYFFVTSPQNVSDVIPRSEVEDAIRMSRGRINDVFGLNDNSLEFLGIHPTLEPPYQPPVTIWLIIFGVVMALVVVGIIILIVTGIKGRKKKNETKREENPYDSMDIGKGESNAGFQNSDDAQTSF
The experiment in a line: Na+-dependent leucine uptake in inverted sections of mouse intestine. To be noted: 50 μM inhibitor, 150 μM [14C]leucine. An excerpt:
For uptake assays with inverted sections of mouse small intestine, 5–7 months old C57/BL6J female mice were sacrificed by cervical dislocation (Animal ethics protocol A2016/41, Australian National University). The small intestine was removed and the intestinal lumen was rinsed with ice-cold 0.9% NaCl. Subsequently, the small intestine was inverted on a metal rod to expose the mucosa. The inverted intestine was then cut into 1 cm pieces and fitted onto enzyme spatulas, which were immersed in HBSS pH 7.5 supplemented with 1 mM glutamine and protease inhibitor (Roche Complete). After washing twice in modified HBSS pH 7.5 (containing 10% NaCl + 90% NMDG-Cl for Na^+-dependent uptake and 100% NMDG-Cl for Na^+-independent uptake, both buffers supplemented with 1 mM glutamine) to remove residual compounds, the segments were pre-incubated in the same buffer in the presence of 50 µM of transport inhibitor and protease inhibitors for 15 min. At the end of the pre-incubation, the segments were transferred for 30 s into uptake buffer at 37°C (HBSS pH 7.5 supplemented with 150 μM [^14C]leucine and 50 µM transport inhibitor). For Na^+-dependent uptake regular HBSS was used, for Na^+-independent uptake NaCl was replaced by NMDG-Cl. Subsequently, the segments were rinsed three times in ice-cold HBSS pH 7.5 and lysed in 400 µl of 10% SDS. After 2–3 h, the lysed tissues were analyzed by scintillation counting.
To test whether the novel B^0AT1 inhibitors block the transporter in a more physiological environment, we studied leucine uptake in inverted sections of mouse intestine ( Figure 6C ). We established previously that Na^+-dependent leucine uptake (blue bars) in this system is mediated by B^0AT1 ([Broer et al., 2011]). In addition leucine uptake has a Na^+-independent transport component (salmon coloured bars), which is most likely mediated by rbat/b^0,+AT. Because of variability between animals, all data were normalized to uninhibited controls from the same animal.

For assay [5], the target named is T1, B^0AT1. To be noted: reference not printed at the place; ref Danthi et al., 2019; cited from earlier work.

One may read the IC50 as the point on the concentration scale where inhibition reaches its midpoint. Regarding `CN1[C@@H]2CC[C@H]1C[C@@H](OC(c1ccccc1)c1ccccc1)C2` [Benztropin, benztropine, reference compound], the IC50 was found to be 44 ± 9 µM in assay [1] and 71 ± 8 µM in assay [2].

With `CS(=O)(=O)Nc1ccc([N+](=O)[O-])cc1Oc1ccccc1` [Nimesulide], the IC50 in assay [3] was 23 µM.

For the compound `COc1ccc(C(CCCN2CCCCC2)c2ccc(C)cc2)cc1` (stereo not shown) [Compound E-63], the concentration for half-maximal inhibition (IC50) in assay [1] came to 32 ± 14 µM; in assay [2], 39 ± 10 µM.

As to `c1ccc(CCCN2CCCCC2Cc2ccccc2)cc1` (stereo not shown) [NSC22789, reference compound], the 50% inhibitory concentration (IC50) in assay [1] came to 90 ± 21 µM; in assay [2], 78 ± 16 µM.

With `Cc1ccc(C(CCCN2CCOCC2)c2ccc3c(c2)OCO3)cc1` (stereo not shown) [Compound E-84], the half-maximal inhibitory concentration (IC50) in assay [1] came out at 31 ± 3 µM; in assay [2], 19 ± 4 µM.

For `COc1ccc(C(CCCN2CCOCC2)c2ccc3c(c2)OCO3)cc1` (stereo not shown) [Compound E-89], the IC50 was 39 ± 4 µM in assay [1] and 34 ± 7 µM in assay [2].

In the case of `COc1ccc(C(CCCN2CCCCC2)c2ccc3c(c2)OCO3)cc1` (stereo not shown) [Compound E-90], the IC50 in assay [1] turned out to be 74 ± 19 µM; in assay [2] it was 25 ± 8 µM.

Turning to `Cc1ccc(C(CCCN2CCCCC2)c2ccc3c(c2)OCO3)cc1` (stereo not shown) [Compound E-85], the figures for the IC50 in assay [1] and in assay [2] were 36 ± 11 µM and 8 ± 2 µM, respectively.

With `COc1ccc(C(CCCN2CCOCC2)c2ccc(F)cc2)cc1` (stereo not shown) [Compound E-68], the half-maximal inhibitory concentration (IC50) was found to be 33 ± 9 µM in assay [1] and 19 ± 6 µM in assay [2].

With `COc1ccc(C(CCCN2CCCCC2)c2ccc(F)cc2)cc1` (stereo not shown) [Compound E-69], the 50% inhibitory concentration (IC50) amounted to 94 ± 20 µM in assay [1] and 46 ± 7 µM in assay [2].

Turning to `COc1ccc(C(CCCN2CCOCC2)c2ccccc2)cc1` (stereo not shown) [Compound E-47], the IC50 in assay [1] was found to be 21 ± 6 µM; in assay [2], 17 ± 9 µM.

As for `CCNC(=O)/C=C/c1cccc(Br)c1` [Cinromide, cinromide, reference compound], the half-maximal inhibitory concentration (IC50) in assay [1] was 0.5 ± 0.08 µM; in assay [5], 0.3 µM. Besides, the “Inhibition of Na+-dependent leucine uptake (B^0AT1) ex vivo” value in assay [4] is on record as “limited capacity to inhibit B^0AT1”.

`COc1ccc(C(CCCN2CCCCC2)c2ccccc2)cc1` (stereo not shown) [Compound E-53]: the 50% inhibitory concentration (IC50) stood at 31 ± 15 µM in assay [1] and 8 ± 4 µM in assay [2].

`COc1ccc(C(CCCN2CCOCC2)c2ccc(C)cc2)cc1` (stereo not shown) [Compound E-62]: the values for the IC50 in assay [1] and in assay [2] were 20 ± 1 µM and 16 ± 8 µM, respectively.
